Measured values as given in patent publication US6194383A, “Lipopeptides from actinoplanes sp. with pharmacological action, process for their production and the use thereof” (Hoechst Aktiengesellschaft, priority 1993, dated 2001).

Tests used:
Format in all cases: cell-based
[1] = test system: relevant organisms; assay: agar dilution test, MIC, in vitro activity (AB spectrum); settings: Muller-Hinton agar, 37° C., 24 hours
Description: (§1) The sensitivity of relevant organisms to the A 1437 lipopeptides is determined by an agar dilution test. The agar used is Muller-Hinton agar to which, in the case of S. pyogenes and the Enterococci, 10% horse blood is added. The antibiotic-containing plates are inoculated using a multichannel inoculator (5×10^4 cfu/inoculation site of a stationary culture of the particular strain). The MIC values (minimum inhibitory concentration) are read off at 37° C. The MIC is defined as the concentration of the antibiotic at which no visible growth of the organisms is detectable after incubation for 24 hours. The amphomycin used as control was obtained from Boehringer Mannheim (Germany). Amphomycin can be obtained as fine chemical therefrom.

[2] = test system: Enterococcus faecium VR1; assay: agar dilution test, MIC, vancomycin-resistant strains; settings: Muller-Hinton agar with 10% horse blood, 37° C., 24 hours
Description: as §1

[3] = test system: Enterococcus faecium VR2; assay: as above; settings: Muller-Hinton agar with 10% horse blood, 37° C., 24 hours
Description: as §1

[4] = test system: Streptococcus pyogenes; assay: agar dilution test, MIC, vancomycin-resistant strains table; settings: Muller-Hinton agar with 10% horse blood, 37° C., 24 hours
Description: as §1

[5] = 1st of 6 value columns, strain not given
[6] = 2nd of 6 value columns, strain head not printed
[7] = 3rd of 6 value columns, strain not given
[8] = 4th of 6 value columns, strain not given
[9] = 5th of 6 value columns, strain not given
[10] = 6th of 6 value columns, strain head not printed

Substance	MIC, in vitro activity (AB spectrum), concentration [1, 5] [µg/mL]	MIC, in vitro activity (AB spectrum), concentration [1, 6] [µg/mL]	MIC, in vitro activity (AB spectrum), concentration [1, 7] [µg/mL]	MIC, in vitro activity (AB spectrum), concentration [1, 8] [µg/mL]	MIC, in vitro activity (AB spectrum), concentration [1, 9] [µg/mL]	MIC, in vitro activity (AB spectrum), concentration [1, 10] [µg/mL]	MIC, in vitro activity (vancomycin-resistant strains), concentration [2] [µg/mL]	MIC, in vitro activity (vancomycin-resistant strains), concentration [3] [µg/mL]	MIC, in vitro activity (vancomycin-resistant strains), concentration [4] [µg/mL]
Amphomycin [reference compound]	0.195	0.781	0.391	1.56	0.391	1.56	4	4	2
aiC13 -fatty acid-Asn-Dab-Pip-MeAsp-Asp-Gly-Asp-Gly-Dab-Val-Pro [A 1437 F]	0.098	0.391	0.195	1.56	0.781	1.56	4	4	1
aiC15 -fatty acid-Asn-Dab-Pip-MeAsp-Asp-Gly-Asp-Gly-Dab-Val-Pro [A 1437 H]	0.049	0.098	0.049	0.195	0.049	0.195	1	1	0.5
aiC15 -fatty acid-Asp-Dab-Pip-MeAsp-Asp-Gly-Asp-Gly-Dab-Val-Pro [A 1437 G]	0.098	0.195	0.049	0.088	0.025	0.195	0.25	0.25	0.125
iC13 -fatty acid-Asp-Dab-Pip-MeAsp-Asp-Gly-Asp-Gly-Dab-Val-Pro [A 1437 A]	0.391	0.781	0.391	1.56	0.391	3.13	–	–	–
iC14 -fatty acid-Asn-Dab-Pip-MeAsp-Asp-Gly-Asp-Gly-Dab-Val-Pro [A 1437 D]	0.049	0.195	0.049	0.781	0.391	0.781	2	2	1
iC14 -fatty acid-Asp-Dab-Pip-MeAsp-Asp-Gly-Asp-Gly-Dab-Val-Pro [A 1437 B]	0.098	0.195	0.098	0.195	0.049	0.391	1	1	0.5
ic13 -fatty acid-Asn-Dab-Pip-MeAsp-Asp-Gly-Asp-Gly-Dab-Val-Pro [A 1437 C]	0.195	0.781	0.391	3.13	0.781	3.13	4	4	4
